Test results: PubChem BioAssay (NCI)
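Tested at 5 concentrations; 48 h exposure; 96-well plates; endpoints linearly interpolated, else capped at highest concentration. TGI marks complete inhibition of growth.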

What was measured:
Assay in all cases: inhibition of tumour cell growth, NCI panel, 48 h
SN12C renal = tested on: SN12C renal
786-0 renal = tested on: 786-0 renal
HOP-62 NSCLC = tested on: HOP-62 NSCLC
MALME-3M melanoma = tested on: MALME-3M melanoma
U251 CNS = tested on: U251 CNS
HT29 colon = tested on: HT29 colon
M19-MEL melanoma = tested on: M19-MEL melanoma
OVCAR-8 ovarian = tested on: OVCAR-8 ovarian
NCI-H460 lung = tested on: NCI-H460 lung
SW-620 colon = tested on: SW-620 colon
SNB-75 CNS = tested on: SNB-75 CNS
HOP-18 NSCLC = tested on: HOP-18 NSCLC
SK-MEL-5 melanoma = tested on: SK-MEL-5 melanoma
RPMI-8226 leukemia = tested on: RPMI-8226 leukemia
SF-295 CNS = tested on: SF-295 CNS
DMS 114 small cell lung = tested on: DMS 114 small cell lung
IGROV1 ovarian = tested on: IGROV1 ovarian
MOLT-4 leukemia = tested on: MOLT-4 leukemia
UACC-62 melanoma = tested on: UACC-62 melanoma
EKVX NSCLC = tested on: EKVX NSCLC
M14 melanoma = tested on: M14 melanoma
SR leukemia = tested on: SR leukemia
SK-MEL-2 melanoma = tested on: SK-MEL-2 melanoma
SF-539 CNS = tested on: SF-539 CNS
A549 NSCLC = tested on: A549 NSCLC
LXFL 529 NSCLC = tested on: LXFL 529 NSCLC
SK-MEL-28 melanoma = tested on: SK-MEL-28 melanoma
OVCAR-3 ovarian = tested on: OVCAR-3 ovarian
UO-31 renal = tested on: UO-31 renal
COLO 205 colon = tested on: COLO 205 colon
OVCAR-5 ovarian = tested on: OVCAR-5 ovarian
KM20L2 colon = tested on: KM20L2 colon
TK-10 renal = tested on: TK-10 renal
KM12 colon = tested on: KM12 colon
DLD-1 colon = tested on: DLD-1 colon
RXF 393 renal = tested on: RXF 393 renal
SNB-78 CNS = tested on: SNB-78 CNS
HCT-15 colon = tested on: HCT-15 colon
DMS 273 small cell lung = tested on: DMS 273 small cell lung
NCI-H23 lung = tested on: NCI-H23 lung
A498 renal = tested on: A498 renal
HL-60(TB) leukemia = tested on: HL-60(TB) leukemia
LOX IMVI melanoma = tested on: LOX IMVI melanoma
CAKI-1 renal = tested on: CAKI-1 renal
HCT-116 colon = tested on: HCT-116 colon
ACHN renal = tested on: ACHN renal
NCI-H226 lung = tested on: NCI-H226 lung
K-562 leukemia = tested on: K-562 leukemia
HCC-2998 colon = tested on: HCC-2998 colon
SK-OV-3 ovarian = tested on: SK-OV-3 ovarian
SNB-19 CNS = tested on: SNB-19 CNS
HOP-92 NSCLC = tested on: HOP-92 NSCLC
XF 498 CNS = tested on: XF 498 CNS
UACC-257 melanoma = tested on: UACC-257 melanoma
CCRF-CEM leukemia = tested on: CCRF-CEM leukemia
OVCAR-4 ovarian = tested on: OVCAR-4 ovarian
NCI-H522 lung = tested on: NCI-H522 lung
SF-268 CNS = tested on: SF-268 CNS

## O=C(Cc1ccccc1)NN1C(=O)C(Cl)C1c1ccccc1Cl (stereo unspecified)
SN12C renal
  TGI: > 100 µM
786-0 renal
  TGI: > 100 µM
HOP-62 NSCLC
  TGI: > 100 µM
MALME-3M melanoma
  TGI: > 100 µM
U251 CNS
  TGI: > 100 µM
HT29 colon
  TGI: > 100 µM
M19-MEL melanoma
  TGI: > 100 µM
OVCAR-8 ovarian
  TGI: > 100 µM
NCI-H460 lung
  TGI: > 100 µM
SW-620 colon
  TGI: > 100 µM
SNB-75 CNS
  TGI: > 100 µM
HOP-18 NSCLC
  TGI: > 100 µM
SK-MEL-5 melanoma
  TGI: > 100 µM
RPMI-8226 leukemia
  TGI: 51.1 µM
SF-295 CNS
  TGI: > 100 µM
DMS 114 small cell lung
  TGI: > 88.4 µM
IGROV1 ovarian
  TGI: > 93.1 µM
MOLT-4 leukemia
  TGI: 62.8 µM
UACC-62 melanoma
  TGI: > 100 µM
EKVX NSCLC
  TGI: > 100 µM
M14 melanoma
  TGI: > 100 µM
SR leukemia
  TGI: 64.4 µM
SK-MEL-2 melanoma
  TGI: > 100 µM
SF-539 CNS
  TGI: > 100 µM
A549 NSCLC
  TGI: > 100 µM
LXFL 529 NSCLC
  TGI: > 100 µM
SK-MEL-28 melanoma
  TGI: > 100 µM
OVCAR-3 ovarian
  TGI: > 100 µM
UO-31 renal
  TGI: > 100 µM
COLO 205 colon
  TGI: > 100 µM
OVCAR-5 ovarian
  TGI: > 100 µM
KM20L2 colon
  TGI: > 100 µM
TK-10 renal
  TGI: > 100 µM
KM12 colon
  TGI: > 100 µM
DLD-1 colon
  TGI: > 100 µM
RXF 393 renal
  TGI: > 100 µM
SNB-78 CNS
  TGI: > 100 µM
HCT-15 colon
  TGI: > 100 µM
DMS 273 small cell lung
  TGI: > 100 µM
NCI-H23 lung
  TGI: > 100 µM
A498 renal
  TGI: > 100 µM
HL-60(TB) leukemia
  TGI: > 100 µM
LOX IMVI melanoma
  TGI: > 59.5 µM
CAKI-1 renal
  TGI: > 100 µM
HCT-116 colon
  TGI: > 100 µM
ACHN renal
  TGI: > 100 µM
NCI-H226 lung
  TGI: > 100 µM
K-562 leukemia
  TGI: > 100 µM
HCC-2998 colon
  TGI: > 100 µM
SK-OV-3 ovarian
  TGI: > 100 µM
SNB-19 CNS
  TGI: > 100 µM
HOP-92 NSCLC
  TGI: > 100 µM
XF 498 CNS
  TGI: > 100 µM
UACC-257 melanoma
  TGI: > 100 µM
CCRF-CEM leukemia
  TGI: 55.8 µM
OVCAR-4 ovarian
  TGI: > 100 µM
NCI-H522 lung
  TGI: 28 µM
SF-268 CNS
  TGI: > 100 µM

## FC(F)(F)c1ccc2c(c1)N(CCCNCCN1CCOCC1)c1ccccc1S2
SN12C renal
  TGI: 26.9 µM
HOP-62 NSCLC
  TGI: 27.1 µM
MALME-3M melanoma
  TGI: 7.15 µM
U251 CNS
  TGI: 23.7 µM
HT29 colon
  TGI: 10.4 µM
M19-MEL melanoma
  TGI: 22.5 µM
OVCAR-8 ovarian
  TGI: 32.8 µM
NCI-H460 lung
  TGI: 38.5 µM
SW-620 colon
  TGI: 21.9 µM
SNB-75 CNS
  TGI: 20.9 µM
SK-MEL-5 melanoma
  TGI: 13.8 µM
RPMI-8226 leukemia
  TGI: 28.9 µM
SF-295 CNS
  TGI: 27.4 µM
IGROV1 ovarian
  TGI: 33.5 µM
MOLT-4 leukemia
  TGI: 20.1 µM
UACC-62 melanoma
  TGI: 27.8 µM
EKVX NSCLC
  TGI: 29.4 µM
M14 melanoma
  TGI: 4.13 µM
SR leukemia
  TGI: 21.8 µM
SK-MEL-2 melanoma
  TGI: 13.9 µM
SF-539 CNS
  TGI: 16.9 µM
A549 NSCLC
  TGI: 28.3 µM
LXFL 529 NSCLC
  TGI: 25.6 µM
SK-MEL-28 melanoma
  TGI: 17.3 µM
OVCAR-3 ovarian
  TGI: 24.8 µM
UO-31 renal
  TGI: 17.5 µM
COLO 205 colon
  TGI: 6.84 µM
OVCAR-5 ovarian
  TGI: 23.4 µM
KM20L2 colon
  TGI: 17 µM
TK-10 renal
  TGI: 25.4 µM
KM12 colon
  TGI: 25 µM
DLD-1 colon
  TGI: 33.7 µM
RXF 393 renal
  TGI: 9.11 µM
SNB-78 CNS
  TGI: 23.8 µM
HCT-15 colon
  TGI: 19.5 µM
DMS 273 small cell lung
  TGI: 36.7 µM
NCI-H23 lung
  TGI: 24.7 µM
A498 renal
  TGI: 34.9 µM
HL-60(TB) leukemia
  TGI: 22.2 µM
LOX IMVI melanoma
  TGI: 21.2 µM
HCT-116 colon
  TGI: 11.2 µM
ACHN renal
  TGI: 24.7 µM
K-562 leukemia
  TGI: 10.2 µM
HCC-2998 colon
  TGI: 4.06 µM
SNB-19 CNS
  TGI: 30.1 µM
HOP-92 NSCLC
  TGI: 11.2 µM
XF 498 CNS
  TGI: 15.2 µM
UACC-257 melanoma
  TGI: 23.3 µM
CCRF-CEM leukemia
  TGI: 30.4 µM
NCI-H522 lung
  TGI: 30.6 µM
SF-268 CNS
  TGI: 37.2 µM

## CC1(C)CCC(Sc2ccccc2)O1 (stereo unspecified)
SN12C renal
  TGI: > 100 µM
786-0 renal
  TGI: > 100 µM
HOP-62 NSCLC
  TGI: > 100 µM
U251 CNS
  TGI: > 100 µM
M19-MEL melanoma
  TGI: > 100 µM
OVCAR-8 ovarian
  TGI: > 100 µM
NCI-H460 lung
  TGI: > 100 µM
SW-620 colon
  TGI: > 100 µM
SNB-75 CNS
  TGI: > 100 µM
SK-MEL-5 melanoma
  TGI: > 100 µM
RPMI-8226 leukemia
  TGI: > 100 µM
SF-295 CNS
  TGI: > 100 µM
DMS 114 small cell lung
  TGI: > 100 µM
IGROV1 ovarian
  TGI: > 100 µM
MOLT-4 leukemia
  TGI: > 100 µM
UACC-62 melanoma
  TGI: > 100 µM
EKVX NSCLC
  TGI: > 100 µM
M14 melanoma
  TGI: > 100 µM
SR leukemia
  TGI: > 100 µM
SK-MEL-2 melanoma
  TGI: > 100 µM
SF-539 CNS
  TGI: > 100 µM
A549 NSCLC
  TGI: > 100 µM
LXFL 529 NSCLC
  TGI: > 100 µM
SK-MEL-28 melanoma
  TGI: > 100 µM
OVCAR-3 ovarian
  TGI: > 100 µM
UO-31 renal
  TGI: > 100 µM
COLO 205 colon
  TGI: > 100 µM
KM20L2 colon
  TGI: > 100 µM
TK-10 renal
  TGI: > 100 µM
KM12 colon
  TGI: > 100 µM
DLD-1 colon
  TGI: > 100 µM
RXF 393 renal
  TGI: > 100 µM
SNB-78 CNS
  TGI: > 100 µM
HCT-15 colon
  TGI: > 100 µM
DMS 273 small cell lung
  TGI: > 100 µM
NCI-H23 lung
  TGI: > 100 µM
A498 renal
  TGI: > 100 µM
HL-60(TB) leukemia
  TGI: > 100 µM
LOX IMVI melanoma
  TGI: > 100 µM
CAKI-1 renal
  TGI: > 100 µM
HCT-116 colon
  TGI: > 100 µM
ACHN renal
  TGI: > 100 µM
K-562 leukemia
  TGI: > 100 µM
HCC-2998 colon
  TGI: > 100 µM
SK-OV-3 ovarian
  TGI: > 100 µM
SNB-19 CNS
  TGI: > 100 µM
HOP-92 NSCLC
  TGI: > 100 µM
XF 498 CNS
  TGI: > 100 µM
UACC-257 melanoma
  TGI: > 100 µM
CCRF-CEM leukemia
  TGI: > 100 µM
OVCAR-4 ovarian
  TGI: > 100 µM
SF-268 CNS
  TGI: > 100 µM
